Data on 80 targets can be found in the supplement of paper PMC6411743.

Compound in this assay: Nc1ncnc2c1ncn2[C@@H]1O[C@H](COP(=O)(O)OP(=O)(O)OP(=O)(O)O)[C@@H](O)[C@H]1O [adenosine triphosphate]
In words: pEC50 of ATP-induced change in protein thermal stability (2D-TPP). In outline:
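Soluble protein was quantified by TMT LC-MS/MS after ultracentrifugation of Jurkat crude lysate that had been dosed at five concentrations including vehicle (10 min, room temperature), heated at 12 temperatures of 42–63.9 °C for 3 min, and incubated with NP40 and benzonase at 4 °C for 60 min. Fold changes against vehicle at each temperature were median-normalised, and pEC50 was derived from per-replicate dose-response fits over adjacent temperature pairs. Hits were called with permutation-based false discovery rate control in three independent experiments.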

What is called pEC50 is the EC50 on a negative log10 scale, so that one unit is a factor of ten.
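Also: lysate dosed with Na-ATP at 0 0.005 0.05 0.5 and 2 mM.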

Sequence of UniProt Q9BW27 (Q9BW27 whole entry): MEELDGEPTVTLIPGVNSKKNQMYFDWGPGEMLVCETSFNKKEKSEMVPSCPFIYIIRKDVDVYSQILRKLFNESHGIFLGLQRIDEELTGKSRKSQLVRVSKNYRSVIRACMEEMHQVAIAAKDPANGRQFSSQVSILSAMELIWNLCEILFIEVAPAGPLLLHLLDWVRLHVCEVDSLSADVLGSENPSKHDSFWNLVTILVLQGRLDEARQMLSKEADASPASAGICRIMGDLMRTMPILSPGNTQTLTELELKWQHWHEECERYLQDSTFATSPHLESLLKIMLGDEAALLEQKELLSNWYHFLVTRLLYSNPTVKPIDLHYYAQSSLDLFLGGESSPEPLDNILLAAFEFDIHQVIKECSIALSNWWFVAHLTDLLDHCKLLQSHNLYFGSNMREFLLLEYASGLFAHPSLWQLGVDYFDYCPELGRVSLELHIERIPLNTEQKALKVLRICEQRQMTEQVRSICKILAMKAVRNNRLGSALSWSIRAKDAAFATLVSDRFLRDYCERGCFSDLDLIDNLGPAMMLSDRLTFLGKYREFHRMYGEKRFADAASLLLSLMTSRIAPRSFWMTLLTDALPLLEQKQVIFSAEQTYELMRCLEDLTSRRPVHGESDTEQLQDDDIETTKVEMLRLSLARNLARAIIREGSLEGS
Sequence of UniProt P30419 (P30419 whole entry): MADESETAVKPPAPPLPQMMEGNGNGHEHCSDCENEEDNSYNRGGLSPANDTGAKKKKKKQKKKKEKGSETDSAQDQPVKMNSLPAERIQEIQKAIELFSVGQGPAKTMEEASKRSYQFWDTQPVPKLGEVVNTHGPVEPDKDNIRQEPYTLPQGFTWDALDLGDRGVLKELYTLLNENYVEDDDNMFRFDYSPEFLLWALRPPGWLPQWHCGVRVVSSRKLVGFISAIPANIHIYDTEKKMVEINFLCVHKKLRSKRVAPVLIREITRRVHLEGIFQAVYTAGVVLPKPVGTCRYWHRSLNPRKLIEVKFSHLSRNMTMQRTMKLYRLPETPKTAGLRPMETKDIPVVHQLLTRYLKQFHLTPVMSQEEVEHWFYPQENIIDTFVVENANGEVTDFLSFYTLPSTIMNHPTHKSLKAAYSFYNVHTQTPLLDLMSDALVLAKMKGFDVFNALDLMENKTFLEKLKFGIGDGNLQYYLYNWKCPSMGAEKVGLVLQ
Sequence of UniProt Q15021 (Q15021 whole entry): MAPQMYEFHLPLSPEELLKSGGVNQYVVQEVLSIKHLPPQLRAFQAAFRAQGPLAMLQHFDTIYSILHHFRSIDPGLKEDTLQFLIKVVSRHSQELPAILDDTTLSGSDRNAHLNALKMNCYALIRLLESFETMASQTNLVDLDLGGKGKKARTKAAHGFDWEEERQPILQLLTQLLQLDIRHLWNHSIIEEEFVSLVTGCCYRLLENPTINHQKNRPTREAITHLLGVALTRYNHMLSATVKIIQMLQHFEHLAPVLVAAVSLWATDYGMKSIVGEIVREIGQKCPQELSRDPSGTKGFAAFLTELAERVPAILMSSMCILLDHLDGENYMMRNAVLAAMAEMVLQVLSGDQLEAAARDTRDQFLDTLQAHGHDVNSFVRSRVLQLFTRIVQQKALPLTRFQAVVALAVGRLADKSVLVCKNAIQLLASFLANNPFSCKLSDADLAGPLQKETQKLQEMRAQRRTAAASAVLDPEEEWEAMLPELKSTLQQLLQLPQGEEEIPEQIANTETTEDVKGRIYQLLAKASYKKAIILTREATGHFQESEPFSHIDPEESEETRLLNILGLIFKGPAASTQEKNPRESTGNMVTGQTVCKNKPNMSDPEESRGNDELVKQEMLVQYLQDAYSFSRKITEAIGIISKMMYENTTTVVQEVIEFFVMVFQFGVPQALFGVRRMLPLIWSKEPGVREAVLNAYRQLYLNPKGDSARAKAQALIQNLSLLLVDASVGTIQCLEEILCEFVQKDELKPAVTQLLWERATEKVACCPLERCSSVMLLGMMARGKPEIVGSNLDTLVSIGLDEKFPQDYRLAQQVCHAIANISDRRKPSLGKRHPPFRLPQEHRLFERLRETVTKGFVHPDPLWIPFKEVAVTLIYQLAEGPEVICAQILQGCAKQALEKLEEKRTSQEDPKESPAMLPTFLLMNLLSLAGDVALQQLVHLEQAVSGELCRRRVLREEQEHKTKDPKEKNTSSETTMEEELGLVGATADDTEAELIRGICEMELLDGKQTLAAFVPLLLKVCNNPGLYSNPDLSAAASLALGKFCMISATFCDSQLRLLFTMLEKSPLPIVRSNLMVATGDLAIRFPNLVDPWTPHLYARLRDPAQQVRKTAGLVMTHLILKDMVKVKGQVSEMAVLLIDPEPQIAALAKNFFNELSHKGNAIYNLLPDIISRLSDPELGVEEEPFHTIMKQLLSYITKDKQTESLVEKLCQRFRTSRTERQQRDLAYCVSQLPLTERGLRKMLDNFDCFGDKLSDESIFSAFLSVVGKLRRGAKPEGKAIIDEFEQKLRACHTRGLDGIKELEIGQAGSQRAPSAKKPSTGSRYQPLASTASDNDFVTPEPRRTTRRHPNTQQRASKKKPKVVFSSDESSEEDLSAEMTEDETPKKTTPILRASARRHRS
Sequence of UniProt P50583 (P50583 whole entry): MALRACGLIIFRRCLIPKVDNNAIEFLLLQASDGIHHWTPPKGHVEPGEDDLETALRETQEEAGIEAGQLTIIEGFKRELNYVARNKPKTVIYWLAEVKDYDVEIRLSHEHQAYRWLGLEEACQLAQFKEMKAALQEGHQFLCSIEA
Sequence of UniProt P19338 (P19338 whole entry): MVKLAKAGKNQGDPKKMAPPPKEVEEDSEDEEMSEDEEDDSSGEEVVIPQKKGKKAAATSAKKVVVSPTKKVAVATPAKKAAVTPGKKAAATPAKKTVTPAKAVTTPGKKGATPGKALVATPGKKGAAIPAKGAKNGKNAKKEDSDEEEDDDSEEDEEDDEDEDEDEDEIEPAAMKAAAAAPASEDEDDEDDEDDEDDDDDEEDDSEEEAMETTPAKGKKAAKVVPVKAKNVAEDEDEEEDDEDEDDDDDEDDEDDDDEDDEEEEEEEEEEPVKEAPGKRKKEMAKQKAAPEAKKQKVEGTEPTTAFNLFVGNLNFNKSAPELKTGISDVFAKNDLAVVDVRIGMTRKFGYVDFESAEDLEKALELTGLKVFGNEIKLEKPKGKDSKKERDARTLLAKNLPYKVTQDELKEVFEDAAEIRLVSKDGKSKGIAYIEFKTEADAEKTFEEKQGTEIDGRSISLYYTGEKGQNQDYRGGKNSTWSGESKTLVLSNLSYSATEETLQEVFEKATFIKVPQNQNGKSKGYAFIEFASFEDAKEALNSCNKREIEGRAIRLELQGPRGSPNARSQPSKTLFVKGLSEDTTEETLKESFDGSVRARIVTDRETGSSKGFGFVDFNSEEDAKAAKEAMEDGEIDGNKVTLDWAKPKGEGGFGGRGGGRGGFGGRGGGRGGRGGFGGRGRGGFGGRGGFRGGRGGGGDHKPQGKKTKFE
Sequence of UniProt Q9Y383 (Q9Y383 whole entry): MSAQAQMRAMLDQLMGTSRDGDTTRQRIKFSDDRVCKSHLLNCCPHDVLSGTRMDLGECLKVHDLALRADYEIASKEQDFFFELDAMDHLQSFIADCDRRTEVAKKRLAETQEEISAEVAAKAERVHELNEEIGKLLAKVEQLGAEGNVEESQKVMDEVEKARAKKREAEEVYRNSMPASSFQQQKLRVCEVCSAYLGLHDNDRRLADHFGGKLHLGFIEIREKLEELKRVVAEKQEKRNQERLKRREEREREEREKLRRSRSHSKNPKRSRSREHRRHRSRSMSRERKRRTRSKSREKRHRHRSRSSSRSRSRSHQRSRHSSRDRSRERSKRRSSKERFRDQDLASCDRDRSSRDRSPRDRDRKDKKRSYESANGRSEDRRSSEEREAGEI
Sequence of UniProt Q8WUY8 (Q8WUY8 whole entry): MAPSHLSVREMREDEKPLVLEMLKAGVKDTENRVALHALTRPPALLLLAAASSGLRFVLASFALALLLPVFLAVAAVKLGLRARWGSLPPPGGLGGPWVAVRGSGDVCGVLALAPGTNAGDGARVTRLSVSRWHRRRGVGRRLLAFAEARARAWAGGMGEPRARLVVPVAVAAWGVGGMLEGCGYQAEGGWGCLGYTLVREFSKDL
Sequence of UniProt Q9BPX3 (Q9BPX3 whole entry, looked up): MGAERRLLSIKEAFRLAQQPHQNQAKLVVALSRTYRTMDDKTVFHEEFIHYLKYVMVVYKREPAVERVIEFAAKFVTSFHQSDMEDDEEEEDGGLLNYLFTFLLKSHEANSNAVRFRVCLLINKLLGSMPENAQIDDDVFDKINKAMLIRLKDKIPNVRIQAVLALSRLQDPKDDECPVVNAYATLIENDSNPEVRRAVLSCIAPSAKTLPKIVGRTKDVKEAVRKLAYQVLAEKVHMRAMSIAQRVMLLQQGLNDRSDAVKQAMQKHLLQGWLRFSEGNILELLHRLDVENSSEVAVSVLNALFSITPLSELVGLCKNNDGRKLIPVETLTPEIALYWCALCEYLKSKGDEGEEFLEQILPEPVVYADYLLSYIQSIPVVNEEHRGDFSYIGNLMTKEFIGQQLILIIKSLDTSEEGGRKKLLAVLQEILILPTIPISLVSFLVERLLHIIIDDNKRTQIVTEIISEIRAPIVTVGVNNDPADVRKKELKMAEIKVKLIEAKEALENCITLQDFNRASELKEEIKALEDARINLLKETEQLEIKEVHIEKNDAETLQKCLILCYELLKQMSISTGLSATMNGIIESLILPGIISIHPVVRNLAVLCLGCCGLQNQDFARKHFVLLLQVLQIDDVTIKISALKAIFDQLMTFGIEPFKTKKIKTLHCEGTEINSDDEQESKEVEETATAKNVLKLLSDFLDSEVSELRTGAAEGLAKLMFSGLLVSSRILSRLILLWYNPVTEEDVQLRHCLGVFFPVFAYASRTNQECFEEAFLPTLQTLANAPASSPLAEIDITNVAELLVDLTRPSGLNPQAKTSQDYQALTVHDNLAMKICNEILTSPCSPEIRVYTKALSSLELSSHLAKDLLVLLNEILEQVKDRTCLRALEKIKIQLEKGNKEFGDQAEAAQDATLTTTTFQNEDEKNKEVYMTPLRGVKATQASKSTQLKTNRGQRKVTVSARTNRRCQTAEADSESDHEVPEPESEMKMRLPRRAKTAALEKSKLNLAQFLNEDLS

As for “LARP7 (effect direction: stabilized) (UniProt Q4G0J3)”, the pEC50 turned out to be 3.03.

On to “LARS2 (effect direction: stabilized) (UniProt Q15031)”, for which the pEC50 is 3.59.

Take “LCLAT1 (effect direction: stabilized) (UniProt Q6UWP7)”: the pEC50 is 3.56.

As for “LEMD2 (effect direction: stabilized) (UniProt Q8NC56)”, the pEC50 amounted to 3.8.

As to “LLPH (effect direction: stabilized) (UniProt Q9BRT6)”, the pEC50 is below 2.7.

With “LRPPRC (effect direction: stabilized) (UniProt P42704)”, the pEC50 amounted to 3.65.

For the target “LRWD1 (effect direction: stabilized) (UniProt Q9UFC0)”, the pEC50 came to 3.85.

As for “LUC7L2 (effect direction: stabilized) (UniProt Q9Y383)”, the pEC50 came to 3.22.

Consider “MACROD1 (effect direction: stabilized) (UniProt Q9BQ69)”, for which the pEC50 was 3.27.

As to “MAGED2 (effect direction: destabilized) (UniProt Q9UNF1)”, the pEC50 turned out to be 3.7.

Consider “MAP3K4 (effect direction: stabilized) (UniProt Q9Y6R4)”, for which the pEC50 is 3.63.

With “MAP4K5 (effect direction: stabilized) (UniProt Q9Y4K4)”, the pEC50 amounted to 3.41.

With “MAPRE1 (effect direction: stabilized) (UniProt Q15691)”, the pEC50 is below 2.7.

As to “MARS2 (effect direction: stabilized) (UniProt Q96GW9)”, the pEC50 is 3.24.

For “MCM3 (effect direction: stabilized) (UniProt P25205)”, the pEC50 amounted to 3.53.

“MCM5 (effect direction: stabilized) (UniProt P33992)”: the pEC50 amounted to 3.59.

Consider “MDH1 (effect direction: stabilized) (UniProt P40925)”, for which the pEC50 is 5.

As for “MDH2 (effect direction: stabilized) (UniProt P40926)”, the pEC50 is 2.78.

Turning to “MDP1 (effect direction: destabilized) (UniProt Q86V88)”, the pEC50 is below 2.7.

“MED20 (effect direction: stabilized) (UniProt Q9H944)”: the pEC50 was below 2.7.

Take “MEPCE (effect direction: stabilized) (UniProt Q7L2J0)”: the pEC50 was found to be 2.82.

As to “MIER1 (effect direction: stabilized) (UniProt Q8N108)”, the negative-log EC50 (pEC50) is below 2.7.

Regarding “MLKL (effect direction: stabilized) (UniProt Q8NB16)”, the pEC50 was 3.44.

For “MOB2 (effect direction: stabilized) (UniProt Q70IA6)”, the pEC50 worked out at 3.21.

“MOCS3 (effect direction: stabilized) (UniProt O95396)”: the pEC50 is 3.95.

On to “MOV10 (effect direction: destabilized) (UniProt Q9HCE1)”, for which the pEC50 was 3.24.

Regarding “MRPL2 (effect direction: destabilized) (UniProt Q5T653)”, the pEC50 stood at 3.46.

“MRPL19 (effect direction: destabilized) (UniProt P49406)”: the pEC50 turned out to be 4.49.

On to “MRPL30 (effect direction: destabilized) (UniProt Q8TCC3)”, for which the pEC50 turned out to be 3.37.

On to “MRPS6 (effect direction: destabilized) (UniProt P82932)”, for which the pEC50 came out at 3.58.

In the case of “MRPS22 (effect direction: destabilized) (UniProt P82650)”, the pEC50 was determined as 4.46.

Take “MRPS23 (effect direction: destabilized) (UniProt Q9Y3D9)”: the pEC50 was determined as 3.89.

With “MRTO4 (effect direction: destabilized) (UniProt Q9UKD2)”, the pEC50 was below 2.7.

With “MSI2 (effect direction: stabilized) (UniProt Q96DH6)”, the pEC50 was below 2.7.

Regarding “MSN (effect direction: destabilized) (UniProt P26038)”, the negative logarithm of the EC50 (pEC50) was 3.04.

On to “MTHFD1L (effect direction: stabilized) (UniProt Q6UB35)”, for which the pEC50 is 3.33.

“MTHFD2 (effect direction: stabilized) (UniProt P13995)”: the pEC50 turned out to be 3.15.

Turning to “MTHFSD (effect direction: stabilized) (UniProt Q2M296)”, the pEC50 came to 3.62.

Turning to “MTR (effect direction: stabilized) (UniProt Q99707)”, the pEC50 came to 3.13.

On to “MYBBP1A (effect direction: destabilized) (UniProt Q9BQG0)”, for which the pEC50 stood at 2.77.

Consider “MYH9 (effect direction: stabilized) (UniProt P35579)”, for which the pEC50 was determined as 3.6.

Regarding “MYH10 (effect direction: stabilized) (UniProt P35580)”, the pEC50 was 4.1.

For the target “NAGK (effect direction: stabilized) (UniProt Q9UJ70)”, the pEC50 was 3.15.

As for “NANP (effect direction: destabilized) (UniProt Q8TBE9)”, the pEC50 worked out at 3.08.

As to “NAP1L1 (effect direction: stabilized) (UniProt P55209)”, the pEC50 is below 2.7.

As to “NAP1L4 (effect direction: stabilized) (UniProt Q99733)”, the pEC50 was below 2.7.

In the case of “NAPA (effect direction: destabilized) (UniProt P54920)”, the pEC50 was 4.56.

With “NARS2 (effect direction: stabilized) (UniProt Q96I59)”, the negative logarithm of the EC50 (pEC50) was 4.1.

Turning to “NAT14 (effect direction: stabilized) (UniProt Q8WUY8)”, the pEC50 was found to be 3.34.

Consider “NCAPD2 (effect direction: stabilized) (UniProt Q15021)”, for which the pEC50 turned out to be 3.56.

As to “NCAPG (effect direction: stabilized) (UniProt Q9BPX3)”, the pEC50 was found to be 3.93.

For the target “NCAPH (effect direction: stabilized) (UniProt Q15003)”, the pEC50 was found to be 3.5.

In the case of “NCL (effect direction: stabilized) (UniProt P19338)”, the pEC50 was below 2.7.

Consider “NEDD8 (effect direction: destabilized) (UniProt Q15843)”, for which the pEC50 worked out at 3.02.

Take “NEK9 (effect direction: stabilized) (UniProt Q8TD19)”: the pEC50 turned out to be 3.19.

Turning to “NFATC2 (effect direction: stabilized) (UniProt Q13469)”, the pEC50 was found to be 3.21.

“NFKB1 (effect direction: stabilized) (UniProt P19838)”: the pEC50 amounted to 3.66.

“NIPSNAP1 (effect direction: stabilized) (UniProt Q9BPW8)”: the pEC50 turned out to be 3.75.

With “NKTR (effect direction: stabilized) (UniProt P30414)”, the pEC50 amounted to 3.22.

With “NMNAT1 (effect direction: stabilized) (UniProt Q9HAN9)”, the pEC50 is 3.08.

Consider “NMT1 (effect direction: stabilized) (UniProt P30419)”, for which the pEC50 stood at 3.06.

Regarding “NOP2 (effect direction: destabilized) (UniProt P46087)”, the pEC50 worked out at 2.94.

For the target “NPM1 (effect direction: stabilized) (UniProt P06748)”, the pEC50 came out at 2.88.

Regarding “NPM3 (effect direction: stabilized) (UniProt O75607)”, the pEC50 is below 2.7.

As to “NRF1 (effect direction: stabilized) (UniProt Q16656)”, the pEC50 came to 2.97.

For the target “NSDHL (effect direction: stabilized) (UniProt Q15738)”, the pEC50 was below 2.7.

With “NT5C2 (effect direction: stabilized) (UniProt P49902)”, the pEC50 was 2.82.

For the target “NT5DC2 (effect direction: stabilized) (UniProt Q9H857)”, the pEC50 is below 2.7.

For the target “NUBP1 (effect direction: stabilized) (UniProt P53384)”, the pEC50 stood at 3.44.

For the target “NUDC (effect direction: stabilized) (UniProt Q9Y266)”, the pEC50 is below 2.7.

For “NUDT2 (effect direction: stabilized) (UniProt P50583)”, the pEC50 was 3.31.

On to “NUMB (effect direction: stabilized) (UniProt P49757)”, for which the pEC50 amounted to 3.45.

For the target “NUP85 (effect direction: stabilized) (UniProt Q9BW27)”, the negative logarithm of the EC50 (pEC50) was below 2.7.

For the target “NUP133 (effect direction: stabilized) (UniProt Q8WUM0)”, the pEC50 was determined as 2.84.

Turning to “NUP188 (effect direction: stabilized) (UniProt Q5SRE5)”, the pEC50 is below 2.7.

In the case of “NUP210 (effect direction: stabilized) (UniProt Q8TEM1)”, the pEC50 is below 2.7.

On to “OGDH (effect direction: stabilized) (UniProt Q02218)”, for which the pEC50 came out at 3.3.

Regarding “OPA1 (effect direction: destabilized) (UniProt O60313)”, the pEC50 was determined as 3.09.

Turning to “ORC6 (effect direction: stabilized) (UniProt Q9Y5N6)”, the pEC50 was 3.73.

For “OSBPL8 (effect direction: stabilized) (UniProt Q9BZF1)”, the pEC50 is 3.4.
